Each compound was assayed against JNK3 (Homo sapiens, UniProt P53779) (assay: Measurement of JNK3 enzyme activity). Details: Table 1.
Type: biochemical
Text: Experimental Example 1. Measurement of JNK3 Enzyme Activity

JNK3, sequence (P53779 whole entry, species assumed): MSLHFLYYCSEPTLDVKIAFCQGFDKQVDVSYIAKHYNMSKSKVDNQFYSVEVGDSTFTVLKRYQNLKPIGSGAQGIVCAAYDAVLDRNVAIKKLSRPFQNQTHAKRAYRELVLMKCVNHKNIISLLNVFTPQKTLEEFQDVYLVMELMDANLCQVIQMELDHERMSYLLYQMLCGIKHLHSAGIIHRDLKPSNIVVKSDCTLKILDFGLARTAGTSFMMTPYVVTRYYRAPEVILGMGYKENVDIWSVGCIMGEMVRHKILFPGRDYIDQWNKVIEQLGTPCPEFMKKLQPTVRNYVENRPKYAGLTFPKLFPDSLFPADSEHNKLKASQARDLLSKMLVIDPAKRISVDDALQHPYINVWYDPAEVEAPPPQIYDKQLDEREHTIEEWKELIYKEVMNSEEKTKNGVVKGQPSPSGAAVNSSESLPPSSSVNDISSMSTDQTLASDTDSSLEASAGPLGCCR

| SMILES | IC50 [nM] |
| --- | --- |
| CCOC(=O)C1Cc2nc(-c3ccc(F)c(C(F)(F)F)c3)n(-c3ccnc(N[C@@H]4CCN(C(=O)C5CC5)C4)n3)c2C1 (stereo partly drawn) [Compound 17a, ethyl 1-(2-(((R)-1-(cyclopropanecarbonyl)pyrrolidine-3-yl)amino)pyrimidin-4-yl)-2-(4-fluoro-3-(trifluoromethyl)phenyl)-1,4,5,6-tetracyclopenta[d]imidazol-5-carboxylate] | < 30 |
| CCOC(=O)C1Cc2nc(-c3ccc(F)c(C(F)(F)F)c3)n(-c3ccnc(N[C@H]4CCN(C(=O)C5CC5)C4)n3)c2C1 (stereo partly drawn) [Compound 16a, ethyl 1-(2-(((S)-1-(cyclopropanecarbonyl)pyrrolidine-3-yl)amino)pyrimidin-4-yl)-2-(4-fluoro-3-(trifluoromethyl)phenyl)-1,4,5,6-tetracyclopenta[d]imidazol-5-carboxylate] | > 1000 |

The remaining lines, values ahead:

| IC50 [nM] | SMILES |
| --- | --- |
| < 30 | CNC(=O)C1Cc2nc(-c3ccc(F)c(C(F)(F)F)c3)n(-c3ccnc(NC4CCCN(C(=O)C5CC5)C4)n3)c2C1 (single isomer, unassigned) [Compound 26a] |
| < 30 | NC(=O)C1Cc2nc(-c3ccc(F)c(C(F)(F)F)c3)n(-c3ccnc(NC4CCCN(C(=O)C5CC5)C4)n3)c2C1 (single isomer, unassigned) [Compound 22a] |
| > 1000 | NC(=O)C1Cc2nc(-c3ccc(F)c(C(F)(F)F)c3)n(-c3ccnc(N[C@@H]4CCN(C(=O)C5CC5)C4)n3)c2C1 (stereo partly drawn) [Compound 21a, 1-(2-(((R)-1-(cyclopropanecarbonyl)pyrrolidine-3-yl)amino)pyrimidin-4-yl)-2-(4-fluoro-3-(trifluoromethyl)phenyl)-1,4,5,6-tetracyclopenta[d]imidazol-5-carboxamide] |
| > 1000 | CNC(=O)C1Cc2nc(-c3ccc(F)c(C(F)(F)F)c3)n(-c3ccnc(N[C@H]4CCN(C(=O)C5CC5)C4)n3)c2C1 (stereo partly drawn) [Compound 24a, 1-(2-(((S)-1-(cyclopropanecarbonyl)pyrrolidine-3-yl)amino)pyrimidin-4-yl)-2-(4-fluoro-3-(trifluoromethyl)phenyl)-N-methyl-1,4,5,6-tetracyclopenta[d]imidazol-5-carboxamide] |
| < 30 | CCOC(=O)C1Cc2nc(-c3ccc(F)c(C(F)(F)F)c3)n(-c3ccnc(N[C@@H]4CCCN(C(=O)C5CC5)C4)n3)c2C1 (stereo partly drawn) [Compound 19a, ethyl 1-(2-(((R)-1-(cyclopropanecarbonyl)piperidin-3-yl)amino)pyrimidin-4-yl)-2-(4-fluoro-3-(trifluoromethyl)phenyl)-1,4,5,6-tetracyclopenta[d]imidazol-5-carboxylate] |
| > 1000 | NC(=O)C1Cc2nc(-c3ccc(F)c(C(F)(F)F)c3)n(-c3ccnc(N[C@H]4CCN(C(=O)C5CC5)C4)n3)c2C1 (stereo partly drawn) [Compound 20a, 1-(2-(((S)-1-(cyclopropanecarbonyl)pyrrolidine-3-yl)amino)pyrimidin-4-yl)-2-(4-fluoro-3-(trifluoromethyl)phenyl)-1,4,5,6-tetracyclopenta[d]imidazol-5-carboxamide] |

Same assay, conditions: Table 2

| SMILES | IC50 [nM] |
| --- | --- |
| CCOC(=O)C1Cc2nc(-c3ccc(Cl)c(Cl)c3)n(-c3ccnc(N[C@@H]4CCCN(C(=O)C5CC5)C4)n3)c2C1 (stereo partly drawn) [Compound 19b, ethyl 1-(2-(((R)-1-(cyclopropanecarbonyl)piperidin-3-yl)amino)pyrimidin-4-yl)-2-(3,4-dichlorophenyl)-1,4,5,6-tetracyclopenta[d]imidazol-5-carboxylate] | < 30 |
| CCOC(=O)C1Cc2nc(-c3ccc(Cl)c(Cl)c3)n(-c3ccnc(N[C@H]4CCCN(C(=O)C5CC5)C4)n3)c2C1 (stereo partly drawn) [Compound 18b, ethyl 1-(2-(((S)-1-(cyclopropanecarbonyl)piperidin-3-yl)amino)pyrimidin-4-yl)-2-(3,4-dichlorophenyl)-1,4,5,6-tetracyclopenta[d]imidazol-5-carboxylate] | < 30 |
| CCOC(=O)C1Cc2nc(-c3ccc(Cl)c(Cl)c3)n(-c3ccnc(N[C@H]4CCN(C(=O)C5CC5)C4)n3)c2C1 (stereo partly drawn) [Compound 16b, ethyl 1-(2-(((S)-1-(cyclopropanecarbonyl)pyrrolidine-3-yl)amino)pyrimidin-4-yl)-2-(3,4-dichlorophenyl)-1,4,5,6-tetracyclopenta[d]imidazol-5-carboxylate] | < 30 |

Same assay, conditions: Table 3

| SMILES | IC50 [nM] |
| --- | --- |
| CCOC(=O)C1Cc2nc(-c3ccc4ccccc4c3)n(-c3ccnc(N[C@@H]4CCN(C(=O)C5CC5)C4)n3)c2C1 (stereo partly drawn) [Compound 17c, ethyl 1-(2-(((R)-1-(cyclopropanecarbonyl)pyrrolidine-3-yl)amino)pyrimidin-4-yl)-2-(naphthalen-2-yl)-1,4,5,6-tetracyclopenta[d]imidazol-5-carboxylate] | < 30 |
| CCOC(=O)C1Cc2nc(-c3ccc4ccccc4c3)n(-c3ccnc(N[C@H]4CCN(C(=O)C5CC5)C4)n3)c2C1 (stereo partly drawn) [Compound 16c, ethyl 1-(2-(((S)-1-(cyclopropanecarbonyl)pyrrolidine-3-yl)amino)pyrimidin-4-yl)-2-(naphthalen-2-yl)-1,4,5,6-tetracyclopenta[d]imidazol-5-carboxylate] | < 30 |
| CNC(=O)C1Cc2nc(-c3ccc(F)c(-c4ccc5ccccc5c4)c3)n(-c3ccnc(N[C@@H]4CCCN(C(=O)C5CC5)C4)n3)c2C1 (stereo partly drawn) [Compound 27c] | < 30 |
| NC(=O)C1Cc2nc(-c3ccc4ccccc4c3)n(-c3ccnc(N[C@@H]4CCN(C(=O)C5CC5)C4)n3)c2C1 (stereo partly drawn) [Compound 21c, 1-(2-(((R)-1-(cyclopropanecarbonyl)pyrrolidine-3-yl)amino)pyrimidin-4-yl)-2-(naphthalen-2-yl)-1,4,5,6-tetracyclopenta[d]imidazol-5-carboxamide] | < 30 |

Second part, the compound after the results:

| IC50 [nM] | SMILES |
| --- | --- |
| < 30 | NC(=O)C1Cc2nc(-c3ccc4ccccc4c3)n(-c3ccnc(N[C@H]4CCN(C(=O)C5CC5)C4)n3)c2C1 (stereo partly drawn) [Compound 20c, 1-(2-(((S)-1-(cyclopropanecarbonyl)pyrrolidine-3-yl)amino)pyrimidin-4-yl)-2-(naphthalen-2-yl)-1,4,5,6-tetracyclopenta[d]imidazol-5-carboxamide] |
| < 30 | NC(=O)C1Cc2nc(-c3ccc4ccccc4c3)n(-c3ccnc(N[C@@H]4CCCN(C(=O)C5CC5)C4)n3)c2C1 (stereo partly drawn) [Compound 23c, 1-(2-(((R)-1-(cyclopropanecarbonyl)piperidin-3-yl)amino)pyrimidin-4-yl)-2-(naphthalen-2-yl)-1,4,5,6-tetracyclopenta[d]imidazol-5-carboxamide] |
| < 30 | CNC(=O)C1Cc2nc(-c3ccc4ccccc4c3)n(-c3ccnc(N[C@H]4CCCN(C(=O)C5CC5)C4)n3)c2C1 (stereo partly drawn) [Compound 26c, 1-(2-(((S)-1-(cyclopropanecarbonyl)piperidin-3-yl)amino)pyrimidin-4-yl)-2-(naphthalen-2-yl)-N-methyl-1,4,5,6-tetracyclopenta[d]imidazol-5-carboxamide] |

Same assay, conditions: Table 4

| SMILES | IC50 [nM] |
| --- | --- |
| CCOC(=O)C1Cc2nc(-c3ccc4c(c3)OCO4)n(-c3ccnc(N[C@H]4CCN(C(=O)C5CC5)C4)n3)c2C1 (stereo partly drawn) [Compound 16d, ethyl 2-(benzo[d][1,3]dioxol-5-yl)-1-(2-(((S)-1-(cyclopropanecarbonyl)pyrrolidine-3-yl)amino)pyrimidin-4-yl)-1,4,5,6-tetracyclopenta[d]imidazol-5-carboxylate] | > 1000 |
| CCOC(=O)C1Cc2nc(-c3ccc4c(c3)OCO4)n(-c3ccnc(N[C@H]4CCCN(C(=O)C5CC5)C4)n3)c2C1 (stereo partly drawn) [Compound 18d, ethyl 2-(benzo[d][1,3]dioxol-5-yl)-1-(2-(((S)-1-(cyclopropanecarbonyl)piperidin-3-yl)amino)pyrimidin-4-yl)-1,4,5,6-tetracyclopenta[d]imidazol-5-carboxylate] | < 30 |

Continued, values first:

| IC50 [nM] | SMILES |
| --- | --- |
| > 1000 | CNC(=O)C1Cc2nc(-c3ccc4c(c3)OCO4)n(-c3ccnc(NC4CCN(C(=O)C5CC5)C4)n3)c2C1 (single isomer, unassigned) [Compound 24d] |
| < 30 | NC(=O)C1Cc2nc(-c3ccc4c(c3)OCO4)n(-c3ccnc(N[C@H]4CCCN(C(=O)C5CC5)C4)n3)c2C1 (stereo partly drawn) [Compound 22d, 2-(benzo[d][1,3]dioxol-5-yl)-1-(2-(((S)-1-(cyclopropanecarbonyl)piperidin-3-yl)amino)pyrimidin-4-yl)-1,4,5,6-tetracyclopenta[d]imidazol-5-carboxamide] |
| < 30 | CCOC(=O)C1Cc2nc(-c3ccc4c(c3)OCO4)n(-c3ccnc(N[C@@H]4CCCN(C(=O)C5CC5)C4)n3)c2C1 (stereo partly drawn) [Compound 19d, ethyl 2-(benzo[d][1,3]dioxol-5-yl)-1-(2-(((R)-1-(cyclopropanecarbonyl)piperidin-3-yl)amino)pyrimidin-4-yl)-1,4,5,6-tetracyclopenta[d]imidazol-5-carboxylate] |
| < 30 | NC(=O)C1Cc2nc(-c3ccc4c(c3)OCO4)n(-c3ccnc(N[C@@H]4CCCN(C(=O)C5CC5)C4)n3)c2C1 (stereo partly drawn) [Compound 23d] |

Same assay, conditions: Table 5

| IC50 [nM] | SMILES |
| --- | --- |
| > 1000 | CNC(=O)C1Cc2nc(-c3ccc4c(c3)CCO4)n(-c3ccnc(N[C@H]4CCCN(C(=O)C5CC5)C4)n3)c2C1 (stereo partly drawn) [Compound 26e, 1-(2-(((S)-1-(cyclopropanecarbonyl)piperidin-3-yl)amino)pyrimidin-4-yl)-2-(2,3-dihydrobenzofuran-5-yl)-N-methyl-1,4,5,6-tetracyclopenta[d]imidazol-5-carboxamide] |
| < 30 | CCOC(=O)C1Cc2nc(-c3ccc4c(c3)CCO4)n(-c3ccnc(N[C@@H]4CCCN(C(=O)C5CC5)C4)n3)c2C1 (stereo partly drawn) [Compound 19e, ethyl 1-(2-(((R)-1-(cyclopropanecarbonyl)piperidin-3-yl)amino)pyrimidin-4-yl)-2-(2,3-dihydrobenzofuran-5-yl)-1,4,5,6-tetracyclopenta[d]imidazol-5-carboxylate] |

| SMILES | IC50 [nM] |
| --- | --- |
| CCOC(=O)C1Cc2nc(-c3ccc4c(c3)CCO4)n(-c3ccnc(N[C@H]4CCN(C(=O)C5CC5)C4)n3)c2C1 (stereo partly drawn) [Compound 16e, ethyl 1-(2-(((S)-1-(cyclopropanecarbonyl)pyrrolidine-3-yl)amino)pyrimidin-4-yl)-2-(2,3-dihydrobenzofuran-5-yl)-1,4,5,6-tetracyclopenta[d]imidazol-5-carboxylate] | > 1000 |

Source: patent publication US20240299386A1, “Novel imidazole derivatives having protein kinase inhibitory activity and uses thereof” (INDUSTRY-UNIVERSITY COOPERATION FOUNDATION HANYANG …, priority 2021, published 2024)
